This note sets out measurements from patent US12173018B2, “Penicillin-binding protein inhibitors” (priority 2018, dated 2024).

The structures appear in SMILES notation. Converted amounts (≈) assume the structure as drawn.

One may read the EC50 as the concentration at which the effect is half-maximal. Lower therefore signals greater potency.

The target in one assay is E. coli PBP1a (Escherichia coli (strain K12), UniProt P02918). The assay is described as follows: Radioligand competition binding assay with 14C-labeled boronic acid probe, PBP1a.
E. coli PBP1a, sequence (P02918 whole entry): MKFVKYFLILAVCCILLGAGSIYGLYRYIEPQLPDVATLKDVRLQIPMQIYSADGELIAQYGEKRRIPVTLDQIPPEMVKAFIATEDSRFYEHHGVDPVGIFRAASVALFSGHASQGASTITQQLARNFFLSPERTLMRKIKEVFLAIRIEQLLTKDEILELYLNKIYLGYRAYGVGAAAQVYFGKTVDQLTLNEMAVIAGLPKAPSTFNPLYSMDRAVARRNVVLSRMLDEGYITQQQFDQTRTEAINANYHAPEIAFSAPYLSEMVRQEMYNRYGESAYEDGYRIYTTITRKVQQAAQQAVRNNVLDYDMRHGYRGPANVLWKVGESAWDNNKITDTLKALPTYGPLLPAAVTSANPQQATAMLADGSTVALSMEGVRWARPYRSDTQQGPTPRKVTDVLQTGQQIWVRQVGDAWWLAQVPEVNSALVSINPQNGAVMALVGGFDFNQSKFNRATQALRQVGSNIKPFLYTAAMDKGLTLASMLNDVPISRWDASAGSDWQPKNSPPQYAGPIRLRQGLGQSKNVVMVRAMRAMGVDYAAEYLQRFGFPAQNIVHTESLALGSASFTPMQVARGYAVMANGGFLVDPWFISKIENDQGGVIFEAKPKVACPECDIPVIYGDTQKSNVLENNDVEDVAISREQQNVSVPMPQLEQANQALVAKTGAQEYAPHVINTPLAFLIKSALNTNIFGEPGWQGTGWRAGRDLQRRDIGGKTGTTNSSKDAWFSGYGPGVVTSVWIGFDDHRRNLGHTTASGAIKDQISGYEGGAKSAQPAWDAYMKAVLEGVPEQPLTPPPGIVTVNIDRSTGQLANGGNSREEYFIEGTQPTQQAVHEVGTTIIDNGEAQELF
Settings: not given
The method, boiled down: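 Purified E. coli PBP1a (0.1 μM) preincubated 60 min with test boronic acid inhibitor in 20 mM Tris pH 7.5, 500 mM NaCl, 0.1% Triton X-100, then 60 min with 20 μM ^14C-labeled boronic acid probe. Bound probe recovered by spin desalting and counted by scintillation; EC50 reported.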
In general terms: In a radioligand displacement assay an active substance lowers the binding of a labelled ligand.
The compound `O=C(O)c1cccc2c1OB(O)[C@@H](NC(=O)C(NC(=O)N1CCN(CCF)C(=O)C1=O)c1ccc(O)c(O)c1Cl)C2` (stereo partly drawn) [Example 71, (3R)-3-(2-(2-chloro-3,4-dihydroxyphenyl)-2-(4-(2-fluoroethyl)-2,3-dioxopiperazine-1-carboxamido)acetamido)-2-hydroxy-3,4-dihydro-2H-benzo[e][1,2]oxaborinine-8-carboxylic acid] yielded a 50% effective concentration (EC50) of under 10 µM.

For `CCN1CCN(C(=O)NC(C(=O)N[C@H]2Cc3cccc(C(=O)O)c3OB2O)c2ccc(O)c(O)c2F)C(=O)C1=O` (stereo partly shown) [Example 70], the half-maximal effective concentration (EC50) was under 10 µM.

`CCN1CCN(C(=O)NC(C(=O)N[C@H]2Cc3cccc(C(=O)O)c3OB2O)c2csc(N)n2)C(=O)C1=O` (stereo partly drawn) [Example 5, (3R)-3-(2-(2-aminothiazol-4-yl)-2-(4-ethyl-2,3-dioxopiperazine-1-carboxamido)acetamido)-2-hydroxy-3,4-dihydro-2H-benzo[e][1,2]oxaborinine-8-carboxylic acid] showed an EC50 of under 10 µM.

`CCN1CCN(C(=O)NC(C(=O)N[C@H]2Cc3cccc(C(=O)O)c3OB2O)c2ccc(O)cc2)C(=O)C1=O` (stereo partly drawn) [Example 27, (3R)-3-(2-(4-ethyl-2,3-dioxopiperazine-1-carboxamido)-2-(4-hydroxyphenyl)acetamido)-2-hydroxy-3,4-dihydro-2H-benzo[e][1,2]oxaborinine-8-carboxylic acid] had an EC50 of under 10 µM.

In turn, `NS(=O)(=O)c1ccc(C(NC(=O)N2CCN(CCF)C(=O)C2=O)C(=O)N[C@H]2Cc3cccc(C(=O)O)c3OB2O)cc1` (stereo partly drawn) [Example 103, (3R)-3-(2-(4-(2-fluoroethyl)-2,3-dioxopiperazine-1-carboxamido)-2-(4-sulfamoylphenyl)acetamido)-2-hydroxy-3,4-dihydro-2H-benzo[e][1,2]oxaborinine-8-carboxylic acid] showed an EC50 of 10 to 100 µM.

Compound `CCN1CCN(C(=O)NC(C(=O)N[C@H]2Cc3cccc(C(=O)O)c3OB2O)c2ccc(S(N)(=O)=O)cc2)C(=O)C1=O` (stereo partly drawn) [Example 102, (3R)-3-(2-(4-ethyl-2,3-dioxopiperazine-1-carboxamido)-2-(4-sulfamoylphenyl)acetamido)-2-hydroxy-3,4-dihydro-2H-benzo[e][1,2]oxaborinine-8-carboxylic acid] had an EC50 of 10 to 100 µM.

For another assay, the system named is E. coli DH5α empty pLBII vector control strain. In words: microbe, parasite or virus in culture. Type of assay: cell-based, Escherichia coli. The conditions noted are these: Escherichia coli, read-out: Microbiological Activity (MIC in mg/L), E. coli DH5α/pLBII. The method, boiled down:
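Broth microdilution in cation-supplemented Mueller-Hinton broth used a starting inoculum of 5×10^5 CFU/mL of E. coli DH5α carrying empty pLBII vector. Plates were incubated 16–20 h at 37 °C. MIC was read visually as the lowest concentration showing no growth.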
`CCN1CCN(C(=O)NC(C(=O)N[C@H]2Cc3cccc(C(=O)O)c3OB2O)c2ccc(O)cc2)C(=O)C1=O` (stereo partly drawn) [Example 27, (3R)-3-(2-(4-ethyl-2,3-dioxopiperazine-1-carboxamido)-2-(4-hydroxyphenyl)acetamido)-2-hydroxy-3,4-dihydro-2H-benzo[e][1,2]oxaborinine-8-carboxylic acid]: the MIC is 8 to 16 mg/L (≈ 15.3 to 30.5 µM).

Take `CCN1CCN(C(=O)NC(C(=O)N[C@H]2Cc3cc(F)cc(C(=O)O)c3OB2O)c2csc(N)n2)C(=O)C1=O` (stereo partly drawn) [Example 16, (3R)-3-(2-(2-aminothiazol-4-yl)-2-(4-ethyl-2,3-dioxopiperazine-1-carboxamido)acetamido)-6-fluoro-2-hydroxy-3,4-dihydro-2H-benzo[e][1,2]oxaborinine-8-carboxylic acid]: the MIC was 32 to 64 mg/L (≈ 58.4 to 117 µM).

`CCN1CCN(C(=O)NC(C(=O)N[C@H]2Cc3cccc(C(=O)O)c3OB2O)c2cnc(N)s2)C(=O)C1=O` (stereo partly drawn) [Example 51, (3R)-3-(2-(2-aminothiazol-5-yl)-2-(4-ethyl-2,3-dioxopiperazine-1-carboxamido)acetamido)-2-hydroxy-3,4-dihydro-2H-benzo[e][1,2]oxaborinine-8-carboxylic acid]: the MIC fell in the range of 8 to 16 mg/L (≈ 15.1 to 30.2 µM).

Regarding `CCN1CCN(C(=O)NC(C(=O)N[C@H]2Cc3cccc(C(=O)O)c3OB2O)c2ccc(O)c(O)c2Cl)C(=O)C1=O` (stereo partly drawn) [Example 37, (3R)-3-(2-(2-chloro-3,4-dihydroxyphenyl)-2-(4-ethyl-2,3-dioxopiperazine-1-carboxamido)acetamido)-2-hydroxy-3,4-dihydro-2H-benzo[e][1,2]oxaborinine-8-carboxylic acid], the MIC lay within 8 to 16 mg/L (≈ 13.9 to 27.8 µM).
